The values below come from article PMC6736568, “Discovery of Novel Anti-cryptosporidial Activities From Natural Products by in vitro High-Throughput Phenotypic Screening” (Frontiers in Microbiology, 2019).

For one series, the system named is Cryptosporidium parvum. Nature of the series: qRT-PCR assay of the growth of C. parvum in vitro in HCT-8 host cells (primary and secondary screening, EC50). It counts as cell-based. Conditions: Cryptosporidium parvum, HCT-8; for inhibition at 3.3 µM: secondary screening at 3.3 uM, read-out: % Inhibition (3.3 uM).
[1] abbreviates: primary screening at 10 uM, read-out: Inhibition (%).
The mark [2] stands for this setting: primary screening at 10 uM, treated vs control.

Structures can show the parent of a compound that is named as a salt. Where two headings read alike, the source gives them in different places.

Take `COc1ccc([C@H]2Oc3cc(OC)cc(OC)c3C[C@H]2O)cc1` [EPIAFZELECHIN TRIMETHYL ETHER]: the “Hs18S ΔCT” value in the series with HCT-8 host cells (Hs18S) (human, 41 h, 10 μM) amounted to 0.21. Further, the inhibition at 10 µM in the series on Cryptosporidium parvum (setting [1]) worked out at 13.8%. In “in vitro” (human), the cytotoxicity at 41 h, 10 µM is 13.4%.
In the case of `CC(=O)Oc1cc(OC(C)=O)c2c(c1)O[C@H](c1ccc(OC(C)=O)c(OC(C)=O)c1)[C@H](OC(C)=O)C2` [EPICATECHIN PENTAACETATE], in the series on HCT-8 host cells (Hs18S) (setting [2]), the “Hs18S ΔCT” value is reported as -0.02. In the series with Cryptosporidium parvum (setting [1]), the inhibition at 10 µM was -52.5%. The cytotoxicity at 10 µM in “in vitro” is -1.3%.
For the compound `Oc1cc(O)c2c(c1)O[C@H](c1ccc(O)c(O)c1)[C@H](O)C2` [EPICATECHIN], the “Hs18S ΔCT” value in the series on HCT-8 host cells (Hs18S) (human, 41 h, 10 μM) was -0.09. Besides, the inhibition at 10 µM in the series on Cryptosporidium parvum (setting [1]) is -0.62%. The cytotoxicity at 41 h, 10 µM in the series “in vitro” (human) is -6.3%.
For `O=C(Oc1cc(O)cc2c1C[C@@H](OC(=O)c1cc(O)c(O)c(O)c1)[C@@H](c1cc(O)c(O)c(O)c1)O2)c1cc(O)c(O)c(O)c1` [EPIGALLOCATECHIN 3,5-DIGALLATE], the “Hs18S ΔCT” value in the series on HCT-8 host cells (Hs18S) (setting [2]) is listed as -0.23. In addition, the inhibition at 10 µM in the series with Cryptosporidium parvum (setting [1]) was -1.19%. Besides, in the series “in vitro”, the cytotoxicity at 10 µM was -17.5%.
With `Oc1cc(O)c2c(c1)O[C@H](c1cc(O)c(O)c(O)c1)[C@H](O)C2` [EPIGALLOCATECHIN], the “Hs18S ΔCT” value in the series with HCT-8 host cells (Hs18S) (human, 41 h, 10 μM) was found to be 0.15. The inhibition at 10 µM in the series on Cryptosporidium parvum (setting [1]) worked out at 7.01%. In “in vitro” (human), the cytotoxicity at 41 h, 10 µM came out at 9.9%.
As for `CNC[C@H](O)c1ccc(O)c(O)c1` [EPINEPHRINE BITARTRATE], in the series on HCT-8 host cells (Hs18S), the “Hs18S ΔCT” value is 0.04. For the same compound, the inhibition at 10 µM in the series on Cryptosporidium parvum was -27.1%. Besides, the cytotoxicity at 10 µM in the series “in vitro” was 2.6%.
Take `C[C@@H]1C(=O)O[C@H]2[C@H]1CC[C@@]1(C)C=CC(=O)[C@@]3(C)O[C@@]213` [EPOXY (4,5alpha)-4,5-DIHYDROSANTONIN]: in the series with HCT-8 host cells (Hs18S) (setting [2]), the “Hs18S ΔCT” value was -0.03. Moreover, the inhibition at 10 µM with Cryptosporidium parvum (setting [1]) was found to be 29.7%. In addition, the cytotoxicity at 10 µM in “in vitro” was -1.8%.
Take `C[C@]12CC[C@H]3C(=CCc4cc(O)ccc43)[C@@H]1CCC2=O` [EQUILIN]: the “Hs18S ΔCT” value in the series with HCT-8 host cells (Hs18S) (setting [2]) is -0.60. Moreover, in the series on Cryptosporidium parvum (setting [1]), the inhibition at 10 µM is -53.6%. The cytotoxicity at 41 h, 10 µM in “in vitro” was -51.5%.
For `C[C@@H](CO)NC(=O)[C@@H]1C=C2c3cccc4[nH]cc(c34)C[C@H]2N(C)C1` [ERGONOVINE MALEATE], the “Hs18S ΔCT” value in the series with HCT-8 host cells (Hs18S) (setting [2]) was 0.23. In addition, the inhibition at 10 µM in the series with Cryptosporidium parvum (setting [1]) came out at 2.56%. Besides, the cytotoxicity at 10 µM in the series “in vitro” was 14.5%.
Take `CC(C)[C@@H](C)/C=C/[C@@H](C)[C@H]1CC[C@H]2C3=CC=C4C[C@@H](O)CC[C@]4(C)[C@H]3CC[C@]12C` [ERGOSTEROL]: in the series with HCT-8 host cells (Hs18S) (setting [2]), the “Hs18S ΔCT” value is on record as -0.03. The inhibition at 10 µM with Cryptosporidium parvum (setting [1]) is -29.6%. The cytotoxicity at 41 h, 10 µM in “in vitro” (human) is -1.9%.
Consider `CC[C@H]1OC(=O)[C@H](C)[C@@H](O[C@H]2C[C@@](C)(OC)[C@@H](O)[C@H](C)O2)[C@H](C)[C@@H](O[C@@H]2O[C@H](C)C[C@H](N(C)C)[C@H]2O)[C@](C)(O)C[C@@H](C)C(=O)[C@H](C)[C@@H](O)[C@]1(C)O` [ERYTHROMYCIN], for which the “Hs18S ΔCT” value in the series with HCT-8 host cells (Hs18S) (human, 41 h, 10 μM) was found to be 0.62. Besides, in the series on Cryptosporidium parvum (setting [1]), the inhibition at 10 µM was found to be 94.6%. The inhibition at 3.3 µM in the series on Cryptosporidium parvum is -13%. For the same compound, the cytotoxicity at 41 h, 10 µM in “in vitro” (human) came out at 35%.
`O=c1ccc2cc(O)c(O)cc2o1` [ESCULETIN]: the “Hs18S ΔCT” value with HCT-8 host cells (Hs18S) (setting [2]) is listed as 0.21. Also, the inhibition at 10 µM with Cryptosporidium parvum (setting [1]) was -23.8%. Moreover, in “in vitro”, the cytotoxicity at 10 µM amounted to 13.5%.
For `C[C@]12CC[C@@H]3c4ccc(O)cc4CC[C@H]3[C@@H]1CC[C@@H]2O` [ESTRADIOL], the “Hs18S ΔCT” value in the series with HCT-8 host cells (Hs18S) (human, 41 h, 10 μM) is reported as -0.19. Besides, in the series with Cryptosporidium parvum (setting [1]), the inhibition at 10 µM came out at 22%. Also, in the series “in vitro” (human), the cytotoxicity at 41 h, 10 µM was -13.8%.
Turning to `C=CCc1ccc(OC)cc1` [ESTRAGOLE], the “Hs18S ΔCT” value in the series on HCT-8 host cells (Hs18S) (setting [2]) is -0.22. In addition, in the series with Cryptosporidium parvum (setting [1]), the inhibition at 10 µM was 99.6%. Also, the inhibition at 3.3 µM in the series with Cryptosporidium parvum amounted to 15%. For the same compound, in “in vitro”, the cytotoxicity at 10 µM was -16.6%.
`C[C@]12CC[C@@H]3c4ccc(O)cc4CC[C@H]3[C@@H]1C[C@@H](O)[C@@H]2O` [ESTRIOL]: the “Hs18S ΔCT” value with HCT-8 host cells (Hs18S) (human, 41 h, 10 μM) was -0.12. The inhibition at 10 µM in the series with Cryptosporidium parvum (setting [1]) is 14.4%. Moreover, in “in vitro” (human), the cytotoxicity at 41 h, 10 µM is -8.4%.
On to `C[C@]12CC[C@@H]3c4ccc(O)cc4CC[C@H]3[C@@H]1CCC2=O` [ESTRONE], for which the “Hs18S ΔCT” value in the series on HCT-8 host cells (Hs18S) (human, 41 h, 10 μM) is -0.24. In the series on Cryptosporidium parvum (setting [1]), the inhibition at 10 µM came out at 28.1%. Further, the cytotoxicity at 41 h, 10 µM in the series “in vitro” (human) is -18.4%.
In the case of `COc1cc([C@@H]2c3cc4c(cc3[C@@H](O[C@@H]3O[C@@H]5CO[C@@H](C)O[C@H]5[C@H](O)[C@H]3O)[C@H]3COC(=O)[C@H]23)OCO4)cc(OC)c1O` [ETOPOSIDE], in the series with HCT-8 host cells (Hs18S) (human, 41 h, 10 μM), the “Hs18S ΔCT” value came out at 0.40. Besides, the inhibition at 10 µM with Cryptosporidium parvum (setting [1]) was determined as 48.5%. In addition, the cytotoxicity at 41 h, 10 µM in the series “in vitro” (human) is 24.1%.
In the same order, the values of `CC12CCC(CC1)C(C)(C)O2` [EUCALYPTOL] are -0.22, 16.2% and -16.4%.
For `C=CCc1ccc(O)c(OC)c1` [EUGENOL], the “Hs18S ΔCT” value in the series on HCT-8 host cells (Hs18S) (human, 41 h, 10 μM) was -0.36. Besides, in the series on Cryptosporidium parvum (setting [1]), the inhibition at 10 µM amounted to 3.09%. The cytotoxicity at 41 h, 10 µM in the series “in vitro” (human) was -28.5%.

What is called inhibition is the drop in the measured response relative to a control, in per cent.
